# According to patent publication US8785459B2, “Quinazoline compounds as kinase inhibitors” (Development Center for Biotechnology, priority 2011, dated 2014):
# Experiments:
# B-Raf = B-Raf (Homo sapiens (Human), UniProt P15056); assay: Raf kinase assay (B-Raf), [33P] incorporation into MEK1(K97R); format: biochemical; details: for inhibition at 1 µM: 1.0 μM compound, read-out: B-Raf inhibition at 1.0 μM
# Method in brief: (§1)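 [33P] transfer to kinase-dead MEK1(K97R) substrate (500 ng) measured after 30 min at 30 °C in Tris pH 7.5 buffer containing 8 μM ATP. Enzyme inputs were 2 ng for C-Raf and 5 ng for B-Raf and B-Raf V600E. Duplicate 3-fold serial dilutions gave the half-maximal inhibitory concentration.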
# B-Raf (V600E) = B-Raf (V600E) (Homo sapiens (Human), UniProt P15056, V600E); assay: Raf kinase assay (B-Raf (V600E)), [33P] incorporation into MEK1(K97R); format: biochemical
# Sequence of B-Raf (V600E) (P15056 whole entry V600E): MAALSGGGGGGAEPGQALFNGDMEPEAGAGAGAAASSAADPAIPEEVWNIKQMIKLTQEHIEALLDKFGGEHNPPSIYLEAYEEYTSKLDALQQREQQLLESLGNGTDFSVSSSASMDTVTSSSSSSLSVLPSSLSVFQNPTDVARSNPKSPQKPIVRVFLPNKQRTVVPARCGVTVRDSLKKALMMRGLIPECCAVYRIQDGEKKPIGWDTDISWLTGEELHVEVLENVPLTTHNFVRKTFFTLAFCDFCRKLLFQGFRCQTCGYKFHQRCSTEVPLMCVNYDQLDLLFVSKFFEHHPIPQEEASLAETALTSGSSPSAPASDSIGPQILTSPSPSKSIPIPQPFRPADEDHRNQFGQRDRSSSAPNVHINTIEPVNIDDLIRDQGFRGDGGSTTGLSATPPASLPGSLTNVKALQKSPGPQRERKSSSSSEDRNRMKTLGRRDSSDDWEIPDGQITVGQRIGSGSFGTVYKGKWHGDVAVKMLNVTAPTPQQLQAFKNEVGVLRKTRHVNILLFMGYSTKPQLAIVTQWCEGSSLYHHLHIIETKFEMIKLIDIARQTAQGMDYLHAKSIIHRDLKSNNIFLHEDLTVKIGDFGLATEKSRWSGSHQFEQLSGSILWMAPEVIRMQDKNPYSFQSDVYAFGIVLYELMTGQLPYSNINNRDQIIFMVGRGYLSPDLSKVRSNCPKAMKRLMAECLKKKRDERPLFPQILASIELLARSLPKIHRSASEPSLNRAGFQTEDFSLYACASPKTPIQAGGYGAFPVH
# Method in brief: as §1
# C-Raf = C-Raf (Homo sapiens (Human), UniProt P04049); assay: Raf kinase assay (C-Raf), [33P] incorporation into MEK1(K97R); format: biochemical
# Sequence of C-Raf (P04049 whole entry): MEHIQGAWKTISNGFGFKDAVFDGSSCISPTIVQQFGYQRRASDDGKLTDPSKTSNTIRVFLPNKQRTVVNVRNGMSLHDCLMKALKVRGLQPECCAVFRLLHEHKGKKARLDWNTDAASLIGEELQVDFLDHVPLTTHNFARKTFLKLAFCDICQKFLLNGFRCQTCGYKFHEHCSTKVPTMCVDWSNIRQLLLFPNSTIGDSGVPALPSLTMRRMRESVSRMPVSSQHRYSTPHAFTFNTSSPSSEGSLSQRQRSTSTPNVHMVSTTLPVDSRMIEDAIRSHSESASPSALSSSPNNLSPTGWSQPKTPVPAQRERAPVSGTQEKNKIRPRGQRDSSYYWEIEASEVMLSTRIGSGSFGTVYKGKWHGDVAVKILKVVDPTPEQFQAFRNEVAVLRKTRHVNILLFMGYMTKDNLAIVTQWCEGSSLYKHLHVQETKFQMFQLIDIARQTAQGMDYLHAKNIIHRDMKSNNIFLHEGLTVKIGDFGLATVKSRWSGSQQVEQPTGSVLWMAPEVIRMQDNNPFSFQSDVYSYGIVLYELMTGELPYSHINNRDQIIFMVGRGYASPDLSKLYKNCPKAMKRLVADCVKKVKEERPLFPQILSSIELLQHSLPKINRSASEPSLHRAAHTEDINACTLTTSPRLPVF
# Method in brief: as §1
# A549 = assay: Anti-proliferative activity, CellTiter-96 assay, A549; format: cell-based; details: Homo sapiens, A549 cells, 72 hours incubation
# Description: (§2) Antiproliferative Activity
# (§3) The anti-proliferative activities of the compounds with formula (I) and formula (II) with respect to four human cancer cell lines (A549, A375, MDA-MB-231, and COLO205) were measured using the CellTiter™-96 assay kit (Promega) following the manufacturer's instructions. In brief, the cells were maintained in DMEM containing 10% FCS and incubated at 37° C. in 5% CO2 atmosphere. Cells were plated at a density of 2000 cells/well of a 96-well plate for 24 h, then treated with different concentrations of the compounds, and incubated for another 72 hours. At the end of the incubation, CellTiter™-96 Aqueous One Solution Reagent (Promega) was added and incubated for another 4.0 hours. Cell viability was determined by measuring absorbance at 490 nm using EMax® microplate reader (Molecular Devices). Data were processed and analyzed using GraphPad Prism version 4.
# A375 = assay: Anti-proliferative activity, CellTiter-96 assay, A375; format: cell-based; details: Homo sapiens, A-375, A375 cells, 72 hours incubation
# Description: as §2, §3
# MDA-MB-231 = assay: Anti-proliferative activity, CellTiter-96 assay, MDA-MB-231; format: cell-based; details: Homo sapiens, MDA-MB-231 cells, 72 hours incubation
# Description: as §2, §3
# COLO205 = assay: Anti-proliferative activity, CellTiter-96 assay, COLO205; format: cell-based; details: Homo sapiens, COLO 205, COLO205 cells, 72 hours incubation
# Description: as §2, §3
# Sequence of B-Raf (P15056 whole entry): as the sequence (P15056 whole entry V600E) above, with E600V counted along it
IC50 (B-Raf),inhibition at 1 µM (B-Raf),IC50 (B-Raf (V600E)),IC50 (C-Raf),IC50 (A549),IC50 (A375),IC50 (MDA-MB-231),IC50 (COLO205),Structure (SMILES)
40.4 nM,94.3%,47.3 nM,245 nM,2200 ± 400 nM,8700 ± 2700 nM,> 50000 nM,24700 ± 2400 nM,"COc1cc(-c2cc3c(Nc4cc(O)ccc4Cl)ncnc3cc2OC)ccc1O [Compound 43, 4-(4-(2-chloro-5-hydroxyphenylamino)-7-methoxyquinazolin-6-yl)-2-methoxyphenol]"
40.1 nM,92.6%,59.9 nM,284 nM,1600 ± 400 nM,1900 ± 500 nM,2900 ± 400 nM,7400 ± 1900 nM,"COc1cc(-c2ccc3ncnc(Nc4cc(O)c(Cl)cc4Cl)c3c2)ccc1O [Compound 61, 2,4-dichloro-5-(6-(4-hydroxy-3-methoxyphenyl)quinazolin-4-ylamino)phenol]"
99.6 nM,88.4%,117 nM,233 nM,6400 ± 700 nM,5400 ± 700 nM,6200 ± 400 nM,6300 ± 200 nM,"COc1ccc(-c2ccc3nccc(Nc4cccc5[nH]ncc45)c3c2)cc1C=O [Compound 116, 5-(4-(1H-indazol-4-ylamino)quinolin-6-yl)-2-methoxybenzaldehyde]"
900 nM,,760 nM,2150 nM,1300 ± 300 nM,2300 ± 100 nM,1800 ± 200 nM,8500 ± 2300 nM,"COc1cc(-c2ccc3ncnc(Nc4ccccc4)c3c2)ccc1O [Compound 1, 2-methoxy-4-(4-(phenylamino)quinazolin-6-yl)phenol]"
168 nM,85.8%,254 nM,6640 nM,9300 ± 1300 nM,6000 ± 1000 nM,33800 ± 6900 nM,11500 ± 800 nM,"Oc1cccc(Nc2ncnc3ccc(-c4ccccc4)cc23)c1 [Compound 133, 3-(6-phenylquinazolin-4-ylamino)phenol]"
60 nM,88.4%,70.9 nM,590 nM,900 ± 500 nM,1000 ± 200 nM,1000 ± 100 nM,6400 ± 600 nM,"COc1cc(-c2ccc3ncnc(Nc4cc(O)ccc4C)c3c2)ccc1O [Compound 154, 4-(4-(5-hydroxy-2-methylphenylamino)quinazolin-6-yl)-2-methoxyphenol]"
114 nM,91.2%,139 nM,751 nM,> 50000 nM,> 50000 nM,> 50000 nM,> 50000 nM,"COc1cccc(-c2ccc3ncnc(Nc4cccc5[nH]ncc45)c3c2)c1F [Compound 74, 6-(2-fluoro-3-methoxyphenyl)-N-(1H-indazol-4-yl)quinazolin-4-amine]"
126 nM,85.1%,164 nM,521 nM,16900 ± 600 nM,14200 ± 1000 nM,10100 ± 1100 nM,13600 ± 1500 nM,"CCCS(=O)(=O)Nc1cccc(-c2ccc3ncnc(Nc4cccc5[nH]ncc45)c3c2)c1 [Compound 109, N-(3-(4-(1H-indazol-4-ylamino)quinazolin-6-yl)phenyl)propane-1-sulfonamide]"
174 nM,83%,209 nM,495 nM,14200 ± 800 nM,11400 ± 3000 nM,23200 ± 2000 nM,15900 ± 4100 nM,"Fc1ccc(-c2ccc3ncnc(Nc4cccc5[nH]ncc45)c3c2)cc1F [Compound 85, 6-(3,4-difluorophenyl)-N-(1H-indazol-4-yl)quinazolin-4-amine]"
18.1 nM,97.1%,20.9 nM,96.1 nM,6700 ± 100 nM,2300 ± 300 nM,21100 ± 3800 nM,21100 ± 3800 nM,"COc1cc(-c2ccc3nccc(Nc4cc(O)ccc4F)c3c2)ccc1O [Compound 101, 4-(4-(2-fluoro-5-hydroxyphenylamino)quinolin-6-yl)-2-methoxyphenol]"
26.8 nM,92%,37.5 nM,161 nM,2500 ± 800 nM,2900 ± 600 nM,4700 ± 300 nM,7800 nM,"COc1cc(-c2ccc3ncnc(Nc4ccc(Cl)c(O)c4)c3c2)ccc1O [Compound 157, 4-(4-(4-chloro-3-hydroxyphenylamino)quinazolin-6-yl)-2-methoxyphenol]"
73.9 nM,92.5%,105 nM,338 nM,12700 ± 5300 nM,7200 ± 600 nM,9600 ± 1600 nM,9600 ± 1600 nM,"COc1ccc(-c2ccc3ncnc(Nc4cccc5[nH]ncc45)c3c2)cc1C=O [Compound 98, 5-(4-(1H-indazol-4-ylamino)quinazolin-6-yl)-2-methoxybenzaldehyde]"
149 nM,78.2%,152 nM,1330 nM,10800 ± 700 nM,23600 ± 1200 nM,19500 ± 2100 nM,8300 ± 400 nM,"Nc1ccc(F)c(-c2ccc3nccc(Nc4cccc5[nH]ncc45)c3c2)c1 [Compound 137, 6-(5-amino-2-fluorophenyl)-N-(1H-indazol-4-yl)quinolin-4-amine]"
1010 nM,52.7%,1090 nM,2160 nM,> 50000 nM,> 50000 nM,> 50000 nM,31600 ± 2500 nM,"COc1cc(-c2ccc3ncnc(Nc4ccc(F)c(Cl)c4)c3c2)ccc1O [Compound 14, 4-(4-(3-chloro-4-fluorophenylamino)quinazolin-6-yl)-2-methoxyphenol]"
83.4 nM,89.1%,99.9 nM,290 nM,25100 ± 7100 nM,36300 ± 1700 nM,26500 ± 7300 nM,32300 ± 8500 nM,"COc1cccc(-c2ccc3nccc(Nc4cccc5[nH]ncc45)c3c2)c1F [Compound 111, 6-(2-fluoro-3-methoxyphenyl)-N-(1H-indazol-4-yl)quinolin-4-amine]"
157 nM,85%,221 nM,672 nM,9600 ± 1200 nM,11100 ± 800 nM,11600 ± 1700 nM,18500 ± 1100 nM,"COc1ccc(-c2ccc3ncnc(Nc4cccc5[nH]ncc45)c3c2)cc1F [Compound 75, 6-(3-fluoro-4-methoxyphenyl)-N-(1H-indazol-4-yl)quinazolin-4-amine]"
99.2 nM,82.3%,123 nM,287 nM,4800 ± 1600 nM,6300 ± 700 nM,6200 ± 600 nM,2600 ± 400 nM,"N#Cc1cccc(-c2ccc3nccc(Nc4cccc5[nH]ncc45)c3c2)c1 [Compound 114, 3-(4-(1H-indazol-4-ylamino)quinolin-6-yl)benzonitrile]"
32.5 nM,93.8%,60.1 nM,335 nM,3700 ± 1600 nM,2600 ± 100 nM,7200 ± 1400 nM,11700 ± 2500 nM,"Oc1ccc(-c2ccc3ncnc(Nc4cccc(O)c4)c3c2)cc1 [Compound 62, 3-(6-(4-hydroxyphenyl)quinazolin-4-ylamino)phenol]"
141 nM,86.1%,161 nM,568 nM,14200 ± 2400 nM,7700 ± 400 nM,12600 ± 1800 nM,13000 ± 2400 nM,"c1cc(Nc2ncnc3ccc(-c4ccc5c(c4)OCO5)cc23)c2cn[nH]c2c1 [Compound 96, 6-(benzo[d][1,3]dioxol-5-yl)-N-(1H-indazol-4-yl)quinazolin-4-amine]"
